Results taken from patent publication US7183099B2, “Inhibitors of autoinducer transporters” (Princeton University, priority 2001, dated 2007).
Entries after “also recorded” stand apart in the source; their conditions may differ.

Columns and labels:
[1] = S. typhimurium cell-free spent culture fluids; cited from earlier work
[2] = test system: lsr operon (lsr-lacZ fusions); assay: β-galactosidase assay of lsr::MudJ (lacZ) fusions; assay type: cell-based, S. typhimurium
Experimental: Various S. typhimurium lsr::MudJ fusion strains were grown to late exponential phase in LB medium supplemented with AI-2 prepared by our in vitro method at an approximate concentration of 70 μM. This is roughly twice the concentration of AT-2 that we estimate to be present in S. typhimurium cell-free supernatants (not shown). As a control, we performed the same experiment with material from in vitro reactions carried out with SAH and Pfs enzyme in the absence of the LuxS enzyme. This reaction produces adenine and SRH. Homocysteine was added to this control mixture following the reaction to compensate for the homocysteine that would be produced by LuxS. Therefore, the only component absent from the control reaction was AI-2.
Cultures of S. typhimurium that had been grown overnight were diluted 1:100 into fresh LB and grown for 4 hours. For strains containing plasmids, cultures were diluted in LB supplemented with Amp. When necessary, AI-2 was synthesized in vitro and added to the growth media at the time of inoculation (Schauder et al., 2001). Cells from 1 ml of these cultures were harvested and resuspended in 1 ml Z buffer. P-galactosidase assays were performed using a microtitre plate assay, as described (Slauch and Silhavy, 1991). β-galactosidase units were calculated as (0.1*mOD420/min)/[OD600 of cells*Volume (ml)]. All assays were performed in triplicate.

metE-lacZ fusion = metE-lacZ fusion transcription; assay type: cell-based, S. typhimurium
Experimental: The insertion sites of the eight luxS regulated MudJ fusions were determined by arbitrary PCR amplification of the MudJ-chromosome fusion junctions, followed by BLAST database analysis (Caetano-Anolles, 1993; Altschul et al., 1990). One MudJ insertion was located in the metE gene. MetE is involved in the biosynthesis of methionine, that is a precursor of SAM (Weissbach and Brot, 1991). Specifically, MetE catalyzes the final step in methionine biosynthesis in the absence of vitamin B12. Transcription of metE is induced when the substrate homocysteine is available and when the intracellular concentration of methionine is low (Urbanowski and Stauffer, 1989). We reason that metE is not a true target of AI-2 regulation, but instead metE transcription is induced in the wild type luxS strain relative to the luxS null strain because homocysteine is produced during the generation of AI-2 in the LuxS^+ strain.

[3] = test system: V. harveyi reporter strain BB170 (Sensor 1−, Sensor 2+); assay type: cell-based, Vibrio harveyi
Experimental: Cell-free culture fluids from E. coli, S. typhimurium and V. harveyi strains were tested for the presence of signaling substances that could induce luminescence in the V. harveyi reporter strain BB170 or BB886. […] Positive control wells contained 10 μl of cell-free culture fluid from strain V. harveyi BB152 (Autoinducer-1^−, Autoinducer-2^+) or V. harveyi BB120 (Autoinducer-1^+, Autoinducer-2^+). Negative control wells contained 10 μl of sterile growth medium. The microtiter dishes were shaken in a rotary shaker at 175 rpm at 30° C.
The cell density was measured by diluting the same aliquots of cells used for measuring luminescence, spreading the dilutions onto solid LM medium, incubating the plates overnight at 30° C., and counting the resulting colonies the following day. […] Cell-free culture supernatants from V. harveyi or S. typhimurium strains were added to a final concentration of 10% (v/v) at the time of the first measurement. In control experiments, 10% (v/v) of AB medium, LB medium or LB medium containing 0.5% glucose was added instead of cell-free culture fluids.

[4] = test system: V. harveyi luxN, luxS double mutant reporter strain; assay: Luminescence response of V. harveyi luxN, luxS double mutant reporter; assay type: cell-based, Vibrio harveyi; settings: culture fluids of MM30 (AI-1) and BB152 (AI-2) as sources
Experimental: Verification that the luxN, luxS Double Mutant Responds to AI-2. […] This was verified in a luminescence assay for response to V. harveyi AI-1 and AI-2. V. harveyi strain MM30 (luxS::Tn5) that is phenotypically AI-1^+, AI-2^−, and V. harveyi strain BB152 (luxM::Tn5) that is phenotypically AI-1^−, AI-2^+ were used as the sources of AI-1 and AI-2 respectively. The AI-1 and AI-2 present in culture fluids of these strains was tested for stimulation of light production of the V. harveyi luxN, luxS double mutant reporter strain. In this assay, autoinducer preparations from MM30, BB152 or sterile medium controls were added to the wells of microtiter plates, followed by the addition of the V. harveyi reporter strain. The resulting light production was monitored using a liquid scintillation counter in the chemiluminescence mode. Maximal stimulation of light production in the V. harveyi luxN, luxS reporter strain was compared to that produced by the Sensor 1^+, Sensor 2^− V. harveyi strain BB886 and the Sensor 1^−, Sensor 2^+V. harveyi strain BB170. These two V. harveyi strains are routinely used in this assay as reporters of AI-1 and AI-2 activity respectively.

CC(=O)C(=O)C(O)CO (centres unmarked) [AI-2, 4,5-dihydroxy-2,3-pentanedione]
stability of AI-2 in cell-free culture fluids [1]: stable for long periods of time; also recorded: remains active for long periods of time
expression of the lsr-lacZ fusions ([2]; strains lacking luxS, 70 μM exogenous AI-2): induces the expression of the lsr-lacZ fusions to levels above that when wild type luxS is present
expression of the lsr-lacZ fusions ([2]; wild type luxS strains, exogenous AI-2 added): additional stimulation of the expression of the lsr-lacZ fusions
effect of exogenous AI-2 on transcription of the metE-lacZ fusion (metE-lacZ fusion): did not affect the transcription of the metE-lacZ fusion
signaling activity degraded ([3]; 0.4 M NaCl shock fluid activity incubated 2 h with S. typhimurium cells pre-incubated in 0.1 M NaCl): greater than 98%
input AI-2 activity (induction of V. harveyi bioluminescence reporter) ([3]; in vitro prepared AI-2 added to S. typhimurium culture, chilled immediately): 1000 fold
stimulation in light production in the bioassay ([3]; in vitro reaction: dialyzed LuxS− cell extract + SAM + LuxS protein, MW<5000 filtrate): over 500 fold
stimulation of light production by exogenous autoinducer [4]: stimulated to produce light
